These results are taken from patent US20220389009A1, “SUBSTITUTED 1,6-NAPHTHYRIDINE INHIBITORS OF CDK5” (Goldfinch Bio, Inc., priority 2019, published 2022).

One assay concerns the target CDK2/CycA2 (Homo sapiens, UniProt P24941). Put plainly: CDK2 mobility shift assay (enzymatic activity of CDK2/CycA2). Type of assay: biochemical. Conditions: 1.25 nM CDK2/CycA2, 37 μM ATP, FL Peptide 18, 120 min at room temperature; read-out: CDK2 IC50. Put shortly: (§1)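 Phosphorylation of 1.5 μM fluorescent peptide was read by microfluidic mobility shift and fitted to IC50 (4-parameter), normalized to no-compound and no-enzyme controls. CDK5/p25 ran at 0.154 nM with […] ATP for 60 min, using peptide 29. CDK2/CycA2 ran at 1.25 nM with 37 μM ATP for 120 min, using peptide 18. Both included a 30-min compound preincubation in pH 7.5 buffer.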

The target of the next assay is CDK5/p25 (Homo sapiens, UniProt Q00535). Put plainly: CDK5 mobility shift assay (enzymatic activity of CDK5/p25). It is filed as biochemical. Conditions: for IC50: 0.154 nM CDK5/p25, FL peptide 29, 60 min at room temperature, read-out: CDK5 IC50; for CDK5/CDK2 specificity: fold more active against CDK5 than CDK2. The procedure, abridged:
as §1

CDK5/p25, sequence (Q00535 whole entry): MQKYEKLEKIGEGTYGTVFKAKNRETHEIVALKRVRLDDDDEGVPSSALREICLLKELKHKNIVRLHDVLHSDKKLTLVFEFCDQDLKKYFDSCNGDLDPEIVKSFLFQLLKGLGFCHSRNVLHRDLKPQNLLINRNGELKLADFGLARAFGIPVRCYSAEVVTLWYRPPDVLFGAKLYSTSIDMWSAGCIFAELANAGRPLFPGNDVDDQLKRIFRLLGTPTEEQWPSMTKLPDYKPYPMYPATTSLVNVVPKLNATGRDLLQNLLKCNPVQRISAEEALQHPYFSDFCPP
CDK5/p25, sequence (Q15078 99-307 partner limits assumed): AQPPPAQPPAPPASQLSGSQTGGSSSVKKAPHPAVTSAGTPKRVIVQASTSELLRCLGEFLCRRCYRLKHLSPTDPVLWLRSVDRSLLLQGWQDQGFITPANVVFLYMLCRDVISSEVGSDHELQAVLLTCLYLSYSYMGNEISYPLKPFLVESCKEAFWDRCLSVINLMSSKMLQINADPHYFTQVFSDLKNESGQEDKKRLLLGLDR

A word on the IC50: it is the concentration at which inhibition is half-maximal. For the molecule `OCc1ccn(-c2ccc(Nc3cc4nc(N(Cc5cn[nH]c5)C5CCNCC5)ccc4cn3)c(F)c2)n1` [Compound 287, [1-[3-fluoro-4-([2-[piperidin-4-yl(1H-pyrazol-4-ylmethyl)amino]-1,6-naphthyridin-7-yl]amino)phenyl]pyrazol-3-yl]methanol], the half-inhibitory concentration (IC50) at CDK2/CycA2 was more than 1000 nM. Moreover, at CDK5/p25, the IC50 was in the range of 10 to 100 nM; the CDK5/CDK2 specificity result was “++ (greater than 10-fold and less than or equal to 100-fold more active against CDK5 than CDK2)”.
Regarding `COC(=O)c1cnn(-c2ccc(Nc3cc4nc(S(=O)(=O)C5CCN(C)CC5)ccc4cn3)c(F)c2)c1` [Compound 288], at CDK2/CycA2, the IC50 is more than 1000 nM. Besides, on CDK5/p25, the IC50 was less than 10 nM and the CDK5/CDK2 specificity entry is listed as “+++ (greater than 100-fold more active against CDK5 than CDK2)”.
For the molecule `COC(=O)c1ccn(-c2ccc(Nc3cc4nc(S(=O)(=O)C5CCN(C)CC5)ccc4cn3)c(F)c2)n1` [Compound 290], at CDK2/CycA2, the half-maximal inhibitory concentration (IC50) lay in the range of 100 to 1000 nM. For the same molecule, on CDK5/p25, the half-inhibitory concentration (IC50) was less than 10 nM and the CDK5/CDK2 specificity entry is “+++ (greater than 100-fold more active against CDK5 than CDK2)”.
As for `CN1CCC(C(F)(F)c2ccc3cnc(Nc4ccc(-n5cccn5)cc4F)cc3n2)CC1` [Compound 291, 2-[difluoro(1-methylpiperidin-4-yl)methyl]-N-[2-fluoro-4-(pyrazol-1-yl)phenyl]-1,6-naphthyridin-7-amine], on CDK2/CycA2, the IC50 was 10 to 100 nM. For the same molecule, at CDK5/p25, the IC50 was less than 10 nM; the CDK5/CDK2 specificity entry was “++ (greater than 10-fold and less than or equal to 100-fold more active against CDK5 than CDK2)”.
For `CN1CCC(C(O)c2ccc3cnc(Nc4ccc(-n5ccc(C(=O)O)n5)cc4F)cc3n2)CC1` (stereo not drawn) [Compound 292, 1-[3-fluoro-4-([2-[hydroxy(1-methylpiperidin-4-yl)methyl]-1,6-naphthyridin-7-yl]amino)phenyl]pyrazole-3-carboxylic acid], the half-inhibitory concentration (IC50) on CDK2/CycA2 was 100 to 1000 nM; at CDK5/p25 it was less than 10 nM. Moreover, at CDK5/p25, the CDK5/CDK2 specificity entry was “++ (greater than 10-fold and less than or equal to 100-fold more active against CDK5 than CDK2)”.
With `CN1CCC(S(=O)(=O)c2ccc3cnc(Nc4ccc(-c5cncnc5)cc4F)cc3n2)CC1` [Compound 293], the values for the IC50 on CDK2/CycA2 and on CDK5/p25 were 100 to 1000 nM and less than 10 nM, respectively. On CDK5/p25, the CDK5/CDK2 specificity result is given as “+++ (greater than 100-fold more active against CDK5 than CDK2)”.
With `Cc1ccc(Nc2cc3nc(S(=O)(=O)C4CCN(C)CC4)ccc3cn2)c(F)c1` [Compound 294], at CDK2/CycA2, the concentration for half-maximal inhibition (IC50) fell in the range of 100 to 1000 nM. Further, at CDK5/p25, the IC50 is less than 10 nM and the CDK5/CDK2 specificity result is “+++ (greater than 100-fold more active against CDK5 than CDK2)”.
`CN1CCC(S(=O)(=O)c2ccc3cnc(Nc4ccc(C(C)(C)C)cc4)cc3n2)CC1` [Compound 295]: the IC50 on CDK2/CycA2 was 10 to 100 nM. In addition, at CDK5/p25, the concentration for half-maximal inhibition (IC50) is less than 10 nM; the CDK5/CDK2 specificity entry was “++ (greater than 10-fold and less than or equal to 100-fold more active against CDK5 than CDK2)”.
`CN1CCC(S(=O)(=O)c2ccc3cnc(Nc4ccc(N5CCS(=O)(=O)CC5)cc4)cc3n2)CC1` [Compound 296]: the IC50 is 10 to 100 nM on CDK2/CycA2 and less than 10 nM at CDK5/p25. In addition, the CDK5/CDK2 specificity result on CDK5/p25 was “++ (greater than 10-fold and less than or equal to 100-fold more active against CDK5 than CDK2)”.
With `Cc1ccccc1Nc1cc2nc(S(=O)(=O)C3CCN(C)CC3)ccc2cn1` [Compound 297], the 50% inhibitory concentration (IC50) on CDK2/CycA2 lay in the range of 100 to 1000 nM. Also, at CDK5/p25, the half-inhibitory concentration (IC50) is less than 10 nM and the CDK5/CDK2 specificity result is recorded as “+++ (greater than 100-fold more active against CDK5 than CDK2)”.
Turning to `CC(C)c1ccc(Nc2cc3nc(S(=O)(=O)C4CCN(C)CC4)ccc3cn2)cc1` [Compound 298], on CDK2/CycA2, the IC50 fell in the range of 10 to 100 nM. In addition, at CDK5/p25, the IC50 was less than 10 nM and the CDK5/CDK2 specificity result is given as “+++ (greater than 100-fold more active against CDK5 than CDK2)”.
Regarding `CN1CCC(S(=O)(=O)c2ccc3cnc(Nc4ccccc4F)cc3n2)CC1` [Compound 299], the results for the IC50 at CDK2/CycA2 and on CDK5/p25 were 100 to 1000 nM and less than 10 nM, respectively. The CDK5/CDK2 specificity result at CDK5/p25 was “++ (greater than 10-fold and less than or equal to 100-fold more active against CDK5 than CDK2)”.
As for `CN1CCC(S(=O)(=O)c2ccc3cnc(Nc4ccc(N5CCCC5)cc4)cc3n2)CC1` [Compound 301], the figures for the IC50 at CDK2/CycA2 and at CDK5/p25 were 100 to 1000 nM and less than 10 nM, respectively. Besides, the CDK5/CDK2 specificity entry on CDK5/p25 is “+++ (greater than 100-fold more active against CDK5 than CDK2)”.
Consider `CN1CCC(S(=O)(=O)c2ccc3cnc(Nc4ccc(N5CCC(O)CC5)cc4)cc3n2)CC1` [Compound 304], for which the IC50 on CDK2/CycA2 fell in the range of 100 to 1000 nM. Also, at CDK5/p25, the IC50 is less than 10 nM; the CDK5/CDK2 specificity entry was “++ (greater than 10-fold and less than or equal to 100-fold more active against CDK5 than CDK2)”.
On to `CN1CCC(S(=O)(=O)c2ccc3cnc(Nc4ccc(N5CCNC(=O)C5)cc4)cc3n2)CC1` [Compound 305], for which the IC50 was 10 to 100 nM on CDK2/CycA2 and less than 10 nM on CDK5/p25. Further, the CDK5/CDK2 specificity entry at CDK5/p25 is “++ (greater than 10-fold and less than or equal to 100-fold more active against CDK5 than CDK2)”.
`CN1CCC(S(=O)(=O)c2ccc3cnc(Nc4ccc(N(C)C)cc4)cc3n2)CC1` [Compound 306]: the values for the IC50 at CDK2/CycA2 and on CDK5/p25 were 10 to 100 nM and less than 10 nM, respectively. Further, the CDK5/CDK2 specificity result on CDK5/p25 is given as “+++ (greater than 100-fold more active against CDK5 than CDK2)”.
Turning to `CN1CCC(S(=O)(=O)c2ccc3cnc(Nc4ccc(N5CCOC5=O)cc4)cc3n2)CC1` [Compound 307], the 50% inhibitory concentration (IC50) on CDK2/CycA2 lay within 10 to 100 nM. Besides, on CDK5/p25, the concentration for half-maximal inhibition (IC50) is less than 10 nM; the CDK5/CDK2 specificity result is “++ (greater than 10-fold and less than or equal to 100-fold more active against CDK5 than CDK2)”.
As for `CC1CCN(c2ccc(Nc3cc4nc(S(=O)(=O)C5CCN(C)CC5)ccc4cn3)cc2)CC1` [Compound 308], the half-inhibitory concentration (IC50) at CDK2/CycA2 was 100 to 1000 nM. In addition, on CDK5/p25, the IC50 is less than 10 nM and the CDK5/CDK2 specificity result is recorded as “+++ (greater than 100-fold more active against CDK5 than CDK2)”.
For `CN1CCC(N(Cc2cn[nH]c2)c2ccc3cnc(Nc4ccc(-n5ccc(CO)n5)cc4F)cc3n2)CC1` [Compound 309, [1-[3-fluoro-4-([2-[(1-methylpiperidin-4-yl) (1H-pyrazol-4-ylmethyl)amino]-1,6-naphthyridin-7-yl]amino)phenyl]pyrazol-3-yl]methanol], the half-inhibitory concentration (IC50) at CDK2/CycA2 is more than 1000 nM. At CDK5/p25, the IC50 was in the range of 10 to 100 nM; the CDK5/CDK2 specificity result is “++ (greater than 10-fold and less than or equal to 100-fold more active against CDK5 than CDK2)”.
`COc1ccc(-c2ccc(Nc3cc4nc(C(C)C5CCN(C)CC5)ccc4cn3)c(F)c2)cc1` (stereo not drawn) [Compound 310]: the half-maximal inhibitory concentration (IC50) at CDK2/CycA2 is more than 1000 nM; at CDK5/p25, 10 to 100 nM. Moreover, the CDK5/CDK2 specificity result on CDK5/p25 was “++ (greater than 10-fold and less than or equal to 100-fold more active against CDK5 than CDK2)”.
Turning to `CN1CCC(C2(c3ccc4cnc(Nc5ccc(-n6ccc(CO)n6)cc5F)cc4n3)CC2)CC1` [Compound 312, [1-[3-fluoro-4-([2-[1-(1-methylpiperidin-4-yl)cyclopropyl]-1,6-naphthyridin-7-yl]amino)phenyl]pyrazol-3-yl]methanol], the half-maximal inhibitory concentration (IC50) on CDK2/CycA2 was more than 1000 nM. At CDK5/p25, the concentration for half-maximal inhibition (IC50) lay in the range of 10 to 100 nM; the CDK5/CDK2 specificity entry is “++ (greater than 10-fold and less than or equal to 100-fold more active against CDK5 than CDK2)”.
As to `CC(c1ccc2cnc(Nc3ccc(-c4cccnc4)cc3F)cc2n1)C1CCN(C)CC1` (stereo not drawn) [Compound 314], at CDK2/CycA2, the 50% inhibitory concentration (IC50) is more than 1000 nM. Further, on CDK5/p25, the half-inhibitory concentration (IC50) fell in the range of 10 to 100 nM; the CDK5/CDK2 specificity entry was “++ (greater than 10-fold and less than or equal to 100-fold more active against CDK5 than CDK2)”.
Turning to `OCc1ccn(-c2ccc(Nc3cc4nc(C5(C6CCNCC6)CC5)ccc4cn3)c(F)c2)n1` [Compound 316, [1-[3-fluoro-4-([2-[1-(piperidin-4-yl)cyclopropyl]-1,6-naphthyridin-7-yl]amino)phenyl]pyrazol-3-yl]methanol], the IC50 at CDK2/CycA2 is more than 1000 nM. Besides, at CDK5/p25, the IC50 is 10 to 100 nM; the CDK5/CDK2 specificity entry was “++ (greater than 10-fold and less than or equal to 100-fold more active against CDK5 than CDK2)”.
In the case of `CN1CCC(S(=O)(=O)c2ccc3cnc(Nc4ccc(-n5ccc(C(N)=O)n5)cc4F)cc3n2)CC1` [Compound 317, 1-(3-fluoro-4-[[2-(1-methylpiperidin-4-ylsulfonyl)-1,6-naphthyridin-7-yl]amino]phenyl)pyrazole-3-carboxamide], the concentration for half-maximal inhibition (IC50) on CDK2/CycA2 was 100 to 1000 nM. Moreover, on CDK5/p25, the half-inhibitory concentration (IC50) was less than 10 nM and the CDK5/CDK2 specificity result is “+++ (greater than 100-fold more active against CDK5 than CDK2)”.
In the case of `CC(c1ccc2cnc(Nc3ccc(-c4cccnc4)cc3F)cc2n1)C1CCN(C)CC1` (stereo not drawn) [Compound 319], the IC50 at CDK2/CycA2 was 100 to 1000 nM; at CDK5/p25 it was less than 10 nM. For the same molecule, the CDK5/CDK2 specificity entry at CDK5/p25 is “++ (greater than 10-fold and less than or equal to 100-fold more active against CDK5 than CDK2)”.
In the case of `COc1ccc(-c2ccc(Nc3cc4nc(C(C)C5CCN(C)CC5)ccc4cn3)c(F)c2)cc1` (stereo not drawn) [Compound 322], the half-maximal inhibitory concentration (IC50) at CDK2/CycA2 was 100 to 1000 nM; at CDK5/p25, less than 10 nM. Moreover, the CDK5/CDK2 specificity entry at CDK5/p25 was “+++ (greater than 100-fold more active against CDK5 than CDK2)”.
For the molecule `O=S(=O)(c1ccc2cnc(Nc3ccc(-c4cccnc4)cc3F)cc2n1)C1CCN(CC2COC2)CC1` [Compound 323], the IC50 at CDK2/CycA2 was 100 to 1000 nM. In addition, at CDK5/p25, the IC50 is less than 10 nM and the CDK5/CDK2 specificity entry was “+++ (greater than 100-fold more active against CDK5 than CDK2)”.
With `CC(c1ccc2cnc(Nc3ccc(-n4ccc(C(=O)O)n4)cc3F)cc2n1)C1CCN(C)CC1` (stereo not drawn) [Compound 324], the half-inhibitory concentration (IC50) on CDK2/CycA2 is more than 1000 nM; at CDK5/p25, 10 to 100 nM. Further, the CDK5/CDK2 specificity result on CDK5/p25 was “+++ (greater than 100-fold more active against CDK5 than CDK2)”.
